Consider two molecules from ChEMBL document CHEMBL3286238, “Synthesis of a novel legumain-cleavable colchicine prodrug with cell-specific toxicity” (Bioorg Med Chem, 2014).

Data set [1] can be described thus: Cytotoxicity against human M38L cells after 48 hrs by MTS assay. Format: cell-based. To be noted: for EC50: Homo sapiens, M38L; for EC25: human, m38l.
For data set [2], the system named is HEK293. Description: Cytotoxicity against HEK293 cells after 48 hrs by MTS assay. Format: cell-based, Homo sapiens. To be noted: for EC50: Homo sapiens, HEK293, 48 h; for EC25: human, hek293, 48 h. (Tetrazolium assays rely on reduction of a dye to a coloured formazan, in cell work by metabolically active cells.)
A short description of data set [3]: Potency index, ratio of EC50 for valyl colchicine to EC50 for compound against HEK293 cells after 48 hrs by MTS assay. Format: cell-based. To be noted: human, read-out: Ratio EC50.

On to `COc1cc2c(c(OC)c1OC)-c1ccc(OC)c(=O)cc1[C@@H](NC(=O)[C@@H](N)C(C)C)CC2.Cl`, for which the EC50 in data set [1] and in data set [2] was 0.3 µM each time. Moreover, the EC25 (commonly the point of the concentration-response curve where the effect stands at 25%) in data set [1] was determined as 0.2 µM; in data set [2] it was 0.08 µM.
With `COc1cc2c(c(OC)c1OC)-c1ccc(OC)c(=O)cc1[C@@H](NC(C)=O)CC2` [COLCHICINE], the selectivity ratio at 48 h in data set [3] worked out at 10. The EC50 in data set [1] and in data set [2] was 0.03 µM throughout. Further, the 25% effect concentration (EC25) in data set [1] and in data set [2] was 0.02 µM throughout.
